# Test results from ChEMBL document CHEMBL1157539, “Thousands of chemical starting points for antimalarial lead identification” (Nature, 2010).
# Test system: Plasmodium falciparum
# Assay: GSK_TCMDC: Inhibition of Plasmodium falciparum 3D7 in whole erythrocytes, using parasite LDH activity as an index of growth.
# Assay type: functional, organism-based
# Conditions: Plasmodium falciparum, 3D7
row,Compound,XC50 [nM]
1,COc1ccc(NC(=O)/C=C/c2ccc(Oc3ccccc3Cl)c([N+](=O)[O-])c2)cc1OCCN(C(C)C)C(C)C,883
2,COc1ccc2nccc(N/N=C/c3ccccc3[N+](=O)[O-])c2c1,65.9
3,COc1ccc2nc(C)cc(N/N=C/c3ccccc3[N+](=O)[O-])c2c1,177
4,CCCNCc1ccc(-c2ccc(CN(CCOC)C(=O)CC3CCCC3=O)cc2)nc1 (stereo not given),1240
5,O=C(Nc1cccc(-c2nn3ccccc3c2-c2ccnc(Nc3ccc(Cc4ccncc4)cc3)n2)c1)c1c(F)cccc1F,296
6,COc1ccc(CN2CCCN(Cc3cccc(C(=O)Nc4ccc(C)c(F)c4)c3)CC2)cc1,1310
7,Cc1cnccc1/C=C/c1cccc(OCCN2CCc3ccc(S(C)(=O)=O)cc3CC2)c1,267
8,COc1ccc(O)c(C(=O)c2cc(C(=O)NCCc3ccccc3)c(=O)n(CCc3ccccc3)c2)c1,1010
9,COc1cc(C(=O)NCCCN2CCN(c3cccc(Cl)c3)CC2)ccc1-c1nc2cc(Cl)c(F)cc2[nH]1,1020
10,COc1cc(C)nc2ccc(NC(=O)c3cc([N+](=O)[O-])cc([N+](=O)[O-])c3)cc12,385
11,Cc1cc(NC(=O)c2ccc(S(=O)(=O)N(Cc3ccccc3)C(C)C)cc2)no1,847
12,CC(C)N1CCN(C(CN2CCN(CCCOc3ccccc3-c3ccccc3)CC2)c2ccc(F)cc2)CC1 (stereo not given),789
13,NCC1CCCN1Cc1cccc(-c2ccc(-c3nc4ccccc4[nH]3)s2)c1 (stereo not given),1040
14,c1ccc(CCNc2ncnc3c2[nH]c2ccccc23)cc1,601
15,COc1ccc(CCN2CCC(NCc3cccc(N(C)C)c3)CC2)cc1,1320
16,CN(CC(=O)Nc1cc(C(F)(F)F)ccc1-n1cncn1)Cc1ccc2ccccc2c1,232
17,CCC1(C)CC(CCNCc2ccccc2O)(c2ccc(F)cc2)CCO1 (stereo not given),880
18,COc1cc2nc(NCC3CCCO3)n3nc(-c4ccccc4)nc3c2cc1OC (stereo not given),211
19,Cc1noc(C)c1-c1ccc2c(Nc3ccc(Cl)cc3)c(C(N)=O)cnc2c1,826
20,CC(C)(C)OC(=O)N1CCN(c2ccccc2NC(=O)c2cccc(C(F)(F)F)c2Oc2ccc(F)cc2)CC1,857
21,O=C(N[C@@H](CC1CCCCC1)C(=O)NC1CCCc2ccccc21)c1ccc(O)c(-c2ccc(Cl)c(Cl)c2)c1 (stereo not given in full),195
22,N#Cc1ccccc1C1CCN(C2CCC(Nc3cc(-c4cccnc4)ccn3)CC2)CC1 (stereo not given),958
23,CC(C)CCNCc1c(O)ccc2ccccc12,1670
24,COc1cc2ncnc(Nc3ccc(OCc4ccccc4Br)c(OC)c3)c2cc1OC,427
25,CS(=O)(=O)Nc1cccc(-c2cnc3[nH]cc(-c4cc(N)cc(C(=O)O)c4)c3c2)c1,1080

row,Compound,XC50 [nM]
1,C(=Cc1nc2ccccc2s1)c1ccc2c(c1)OCCO2,393
2,CCC1(CC)CN(c2ccccc2)c2ccc(O)cc2S(=O)(=O)C1CC(C)C (stereo not given),402
3,NC1=Nc2ccc(Cl)cc2C1(O)c1ccccc1 (stereo not given),876
4,CCc1cccc2c(C#N)cn(CC(=O)Nc3ccc(OC)cc3)c12,772
5,O=c1cc(NCCCNCc2ccc(Cl)c(Cl)c2)[nH]c2ccc(C(F)(F)F)cc12,524
6,CN(C)c1ccc2nc(N)nc(N)c2c1Cl,475
7,CN(C)CCNCc1cccc(-c2ccc3c(Nc4ccc(F)cc4Cl)ccnc3c2)c1,809
8,Cc1cccnc1CNc1nccc2c(C)c(C)[nH]c12,849
9,Cc1nnsc1C(=O)Nc1ccc(-c2cccc(-c3nc4cccc(C)c4[nH]3)c2)cc1,630
10,Cc1nc(C)c(-c2ccc(C(F)(F)F)cc2)c(O)c1Br,142
11,Cc1ccccc1CCNC(=O)c1cnc(N2CCN(c3ccncc3)CC2)c(Cl)c1,1060
12,O=C(Nc1ccc(Cl)cc1)c1ccc(CN2CCCN(Cc3ccsc3)CC2)cc1,862
13,COc1ccc(-c2cccc(NC(=O)c3cccc(Cl)c3)c2)cc1CN1CCNCC1,803
14,COc1ccc2c(OC)ccc(CNCCCCCCNCc3ccc(OC)c4ccc(OC)cc34)c2c1,399
15,CC(=O)Nc1cccc(NC(=O)CSc2ccc(-c3nc4ccccc4[nH]3)cn2)c1,559
16,CCCOc1ccc(CCCON2C(N)=NC(N)=NC2(C)C)cc1,3.2
17,COc1ccc(CCNCCCCCCNCCc2cccc([N+](=O)[O-])c2)cc1OC,997
18,O=S(=O)(Nc1ccc(CCN2CCC(N3CCCCC3)CC2)cc1)c1cccc2cccnc12,1060
19,CN(C)c1ccc(/N=C2/N/C(=N/c3ccc(N(C)C)cc3)c3ccccc32)cc1,848
20,NC(=O)c1cccc(Nc2nccc(Nc3ccc(Oc4cccc(Cl)c4)c(Cl)c3)n2)c1,1280
21,CC(Cc1ccc(C2=CCNCC2)cc1)NCC(O)c1cccc(C(F)(F)F)c1 (stereo not given),1570
22,COC(=O)/C=C/c1ccc(CC(C)NCC(O)c2cccc(Br)c2)cc1 (stereo not given),725
23,Nc1ccc2nc(C=Cc3ccccc3)[nH]c2c1,749
24,CNCCNCc1cccc(-c2ccc(-c3nc4cccc(C)c4[nH]3)cc2)c1,798
25,Cc1c(N=O)cc(C(C)(C)C)c(O)c1C(=O)Nc1ccc([N+](=O)[O-])cc1Cl,775

row,Compound,XC50 [nM]
1,O=C(NCC1CN(Cc2ccc(N3CCCC3)o2)CCCO1)c1ccc2c(c1)OCO2 (stereo not given),839
2,CN1CCN(CCCN(Cc2ccc(-c3cccc(CNCc4ccc5c(c4)OCO5)c3)cc2)C(=O)NCCc2ccccc2)CC1,845
3,O=C1Nc2cccc3c2C1(CCCCN1CCC(c2c[nH]c4cc(C(F)(F)F)ccc24)CC1)CCC3 (stereo not given),715
4,O=C(NC1CC1)c1ccc(N2CCCC(COc3ccccc3F)C2)nc1 (stereo not given),897
5,CC(CON1C(N)=NC(N)=NC1(C)C)Cc1ccc(Cl)cc1Cl (stereo not given),3.2
6,Cn1nc(-c2ccc(NC(=O)Nc3cc(C(F)(F)F)ccc3F)cc2)c2cnc(NCCCCN3CCCC3)nc21,531
7,Cc1ccc(CN(Cc2ccc(C(=O)N(C)C)cc2)Cc2ccc3c(c2)OCCO3)cc1C,804
8,CN(C)CCNCc1cccc(-c2ccc3c(Nc4ccc(Oc5ccccc5)cc4)ccnc3c2)c1,441
9,O=C(Nc1cccc(CN2CCN(C(=O)c3cccs3)CC2)c1)c1cccs1,782
10,COc1ccc(N2CCN(CCCCNC(=O)c3ccc(NC(=O)c4ccc(Cl)c(Cl)c4)cc3)CC2)c(OC)c1,212
11,O=C(CNC1=NCCN1)Nc1ccc(NC(=O)Nc2ccc(NC(=O)CNC3=NCCN3)cc2)cc1,781
12,Clc1cccc(-c2nc(Nc3ccnc(-c4ccc(CN5CCOCC5)cc4)c3)c3ccccc3n2)c1,710
13,CC(=O)Nc1ccc(CN2CCC(CNC(=O)c3cc(-c4cccc(Cl)c4)cs3)C2)cc1 (stereo not given),1120
14,CCN(CCCN1CCCCC1)c1cc(C)nc(Nc2ccc(C)c(Br)c2)n1,248
15,COC(=O)c1ccc(CC(C)NCC(O)c2cccc(OC(F)(F)F)c2)cc1 (stereo not given),863
16,O=[N+]([O-])c1cccc(CNC2CCN(Cc3ccc4ccccc4c3)CC2)c1,764
17,N#Cc1cccc(C(=O)Nc2ccc(-c3ccc(CN4CCCC4)cc3)cc2)c1,1150
18,Nc1cc(-c2ccc(-c3cccs3)s2)nc2ccccc12,598
19,FC(F)(F)c1ccc2[nH]c(-c3ccc(-c4ccc(CNCCN5CCNCC5)cc4)s3)nc2c1,910
20,COc1ccc(-c2c(-c3ccc(OCc4ccccc4)cc3O)n[nH]c2C(F)(F)F)cc1,1170
21,Cc1cc(NCCCCCCNc2cc(C)nc3c(C)cccc23)c2cccc(C)c2n1,406
22,COc1cc2nc(N(C)C)nc(Nc3ccc(OCc4ccccc4)cc3)c2cc1OC,71.8
23,Oc1ccc(CCNc2nc(NCc3ccccc3-c3ccc(C(F)(F)F)cc3)nc(NC3CCNCC3)n2)cc1,924
24,COc1ccc2ncc(F)c(CCN3CCC(CNC(=O)C(=O)c4c[nH]c5ccccc45)CC3)c2n1,389
25,CON(C)C(=O)[C@@H](CCCCNC(=O)OCc1ccccc1)NC(=O)OC(C)(C)C,195

row,Compound,XC50 [nM]
1,CCCCOC(=O)c1ccc(Nc2cc(C)nc3ccc(OC)cc23)cc1,640
2,CN(C)CCOc1ccc(N2CCN(CCCCNC(=O)c3ccc(/C=C/c4cc(Cl)cc(Cl)c4)cc3)CC2)cc1,1000
3,O=C(Nc1nc(-c2ccccn2)cs1)c1ccc(Br)s1,1060
4,CCOc1cc2ncnc(Nc3ccc(OCc4c(Cl)cccc4Cl)c(OC)c3)c2cc1OCC,1050
5,O=C(NCc1cccc(OC(F)(F)F)c1)c1cnc2c(c1)nc(-c1c[nH]c(-c3ccccc3)n1)n2CCc1c[nH]cn1,683
6,Cc1nc(N)nc(N)c1OCCCOc1cccc(Cl)c1Cl,2.56
7,Cc1ccc2nc(Cl)c3cc(C(=O)NCCCN4CCCC4)sc3c2c1,1140
8,O=C1CN(C(=O)CCC2CCCC2)C(c2ccc(F)cc2)c2cc(F)ccc2N1 (stereo not given),168
9,CCNc1cc(C(=O)N[C@@H](Cc2ccccc2)[C@H](O)CNC2(CCC(C)C)CC2)cc(N2CCCCS2(=O)=O)c1,1080
10,COc1cc(NCCCNCc2cn(S(=O)(=O)c3ccccc3)c3ccccc23)nc2ccccc12,386
11,CCN(CC)CCn1c2ccccc2c2ccc(C(=O)Nc3ccc4sc(C)nc4c3)cc21,1060
12,Cc1ccc(Nc2ccnc(Nc3ccc(F)c(Cl)c3)n2)cc1O,733
13,CCCN(CCC)C(=S)N/N=C1/C(=O)Nc2ccccc21,815
14,CCCC1N=C(N)N=C(N)N1c1ccc(C)cc1 (stereo not given),95.2
15,O=C(Nc1cccc(-c2cccc(-c3nc4cc(C(F)(F)F)ccc4[nH]3)c2)c1)c1ccoc1,277
16,O=C1OC2(CN1CC1CCN(Cc3ccc(O)c(Cl)c3)CC1)c1ccccc1-c1ccccc12,756
17,CCN(c1ccccc1)S(=O)(=O)c1ccc(OC)c(NC(=O)c2cccc(C(F)(F)F)c2)c1,881
18,CC(=O)c1cccc(NC(=O)C2c3ccccc3C(=O)N(CC(C)C)C2c2cccs2)c1 (stereo not given),590
19,O=C(C=Cc1ccc(Cl)c(Cl)c1)NCCCCCN1CCC(CCNS(=O)(=O)c2ccc(F)cc2)CC1,1090
20,Cc1cc(N[C@@H](CC(C)C)C(=O)Nc2ccccc2)nc(NCCc2ccc(F)cc2)n1,1090
21,CCN(CC)C(=O)C(=O)c1c[nH]c2ccc(Cl)cc12,81.1
22,Cc1cc(O)cc2c(C3CCN(CC4CCN(C(=O)/C=C/c5ccc(Cl)c(Cl)c5)CC4)CC3)c[nH]c12,1090
23,O=C(NCc1ccc(C(=O)NC2CCCCC2)cc1)c1ccc(O)c(-c2ccc(Cl)c(Cl)c2)c1,875
24,CC(=O)Nc1ccc(OCCN(Cc2ccccc2OC(F)(F)F)c2ccc(C(F)(F)F)c(C#N)c2)c(Cl)c1,456
25,CC[C@H]1CN2CC[C@H]1C[C@H]2[C@H](O)c1ccnc2ccc(OC)cc12,154
